The record followed here is US11485736B2 (KSQ Therapeutics, Inc., priority 2018, dated 2022).

SMILES strings stand for the structures. Where two headings read alike, the source gives them in different places. Bounds are passed on as bounds.

One data set deals with USP1/UAF1 (Homo sapiens (Human), UniProt O94782). The data set can be described thus: Deubiquitination assay for USP1/UAF1 activity (ubiquitin-rhodamine 110). Type of data set: biochemical. As to conditions: Table 2; 0.05 nM USP1/UAF1, 150 nM ubiquitin-rhodamine. As to the method: Certain Compounds of the Disclosure were assessed for USP1/UAF1 activity in a Ubiquitin Rhodamine assay modified from those described previously.
USP1/UAF1, sequence (O94782 whole entry): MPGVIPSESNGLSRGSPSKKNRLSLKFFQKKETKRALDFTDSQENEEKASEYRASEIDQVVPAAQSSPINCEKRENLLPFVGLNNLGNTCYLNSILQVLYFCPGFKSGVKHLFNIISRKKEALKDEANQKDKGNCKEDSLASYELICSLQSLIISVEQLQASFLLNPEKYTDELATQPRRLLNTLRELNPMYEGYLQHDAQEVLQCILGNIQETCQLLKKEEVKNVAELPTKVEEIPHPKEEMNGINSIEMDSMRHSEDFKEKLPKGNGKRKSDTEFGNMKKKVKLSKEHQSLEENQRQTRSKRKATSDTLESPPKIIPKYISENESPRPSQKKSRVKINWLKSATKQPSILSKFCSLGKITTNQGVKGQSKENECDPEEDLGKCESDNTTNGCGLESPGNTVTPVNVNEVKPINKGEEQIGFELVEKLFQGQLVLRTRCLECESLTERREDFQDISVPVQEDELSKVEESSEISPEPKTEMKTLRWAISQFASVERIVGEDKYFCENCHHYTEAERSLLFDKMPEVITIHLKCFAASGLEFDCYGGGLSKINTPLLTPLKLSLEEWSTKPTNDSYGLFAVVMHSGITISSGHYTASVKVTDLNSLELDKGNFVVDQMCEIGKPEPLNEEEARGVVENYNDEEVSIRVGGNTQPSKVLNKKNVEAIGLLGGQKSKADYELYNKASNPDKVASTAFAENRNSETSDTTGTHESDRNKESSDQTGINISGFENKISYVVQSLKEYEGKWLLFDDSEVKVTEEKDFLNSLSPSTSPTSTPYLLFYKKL
USP1/UAF1, sequence (Q8TAF3 whole entry partner): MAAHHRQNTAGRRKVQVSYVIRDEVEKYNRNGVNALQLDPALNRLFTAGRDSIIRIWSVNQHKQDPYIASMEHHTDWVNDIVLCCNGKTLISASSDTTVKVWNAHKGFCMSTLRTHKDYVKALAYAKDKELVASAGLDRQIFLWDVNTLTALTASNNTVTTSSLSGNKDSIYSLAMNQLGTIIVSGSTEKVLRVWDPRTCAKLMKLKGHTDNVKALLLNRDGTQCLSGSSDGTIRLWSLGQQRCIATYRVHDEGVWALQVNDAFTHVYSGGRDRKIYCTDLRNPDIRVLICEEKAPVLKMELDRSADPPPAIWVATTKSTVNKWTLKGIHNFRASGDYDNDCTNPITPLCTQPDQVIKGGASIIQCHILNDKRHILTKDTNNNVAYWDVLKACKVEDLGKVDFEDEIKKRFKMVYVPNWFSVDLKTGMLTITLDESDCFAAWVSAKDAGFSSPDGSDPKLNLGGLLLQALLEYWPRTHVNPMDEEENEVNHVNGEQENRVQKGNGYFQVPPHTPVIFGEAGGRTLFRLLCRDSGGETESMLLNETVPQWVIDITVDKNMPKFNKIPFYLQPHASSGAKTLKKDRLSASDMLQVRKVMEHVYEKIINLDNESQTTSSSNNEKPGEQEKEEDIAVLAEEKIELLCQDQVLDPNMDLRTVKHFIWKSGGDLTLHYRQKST
Deubiquitinase activity was measured using ubiquitin-rhodamine 110 as a substrate. Cleavage of the amide bond between rhodamine and the c-terminal glycine of ubiquitin yields an increase in fluorescence signal. The assay was conducted in 20 ul total volume of assay buffer (50 mM Tris-HCl, pH 7.8, 0.5 mM EDTA, 0.01% Bovine Serum Albumin, 1 mM DTT, 0.01% Tween-20), and 0.05 nM USP1/UAF1 enzyme.
Compounds, dissolved in DMSO were tested in dose response format, beginning at 10 uM.
Compounds depicted below were added to enzyme/assay buffer mix and incubated 10 min.
Data for all assay formats was calculated as percent inhibition compared with control wells. […] IC50 values were calculated using the standard four parameter curve fitting algorithm in either Prism GraphPad (La Jolla, Calif.) software, or Collaborative Drug Discovery (Burlingame, Calif.) CDD Vault.

A short description of data set [1]: Liver microsomal stability, rat liver microsomes. The class given is in vitro ADME. To be noted: 1 μM compound, NADPH, read-out: t1/2 (min) in RLM. In a few lines: (§1)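 Compound (1 μM final) was incubated with prewarmed human or rat liver microsomes (1 mg/mL in 100 mM phosphate master mix) plus NADPH; aliquots at 0.5–30 minutes were quenched in cold acetonitrile and quantified by LC-MS/MS. Half-life came from the ln(% remaining) versus time slope, converted to CLint (μL/min/mg prot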

A short description of data set [2]: Liver microsomal stability, human liver microsomes. The class given is in vitro ADME. To be noted: 1 μM compound, NADPH, read-out: t1/2 (min) in HLM. In a few lines:
as §1

The nature of data set [3]: ADME solubility determination at pH 2.0 and pH 7.4. Type of data set: physicochemical. As to conditions: aqueous buffer, thermodynamic from solid, LC-MS/MS. In a few lines:
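Dried residues of 10 mM DMSO stocks were shaken in PBS pH 7.4 or pH 2.0 for 24 hours at 25° C. and 1,100 rpm. After centrifugation, supernatants were quantified by LC-MS/MS against a standard of known concentration, applying a dilution factor.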

Where [4] appears, read: PBS pH 2.0, shaken at 25° C. for 24 hours, read-out: Solubility at pH 2.0.
The mark [5] stands for this setting: PBS pH 7.4, shaken at 25° C. for 24 hours, read-out: Solubility at pH 7.4.

As usually defined, the IC50 is the concentration that gives 50% inhibition. One may read the solubility as the concentration that dissolves in the medium under given conditions.

`COc1cnccc1-c1ncc2cnn(Cc3ccc(-c4nc(C(F)(F)F)cn4C)cc3)c2n1` yielded an IC50 against USP1/UAF1 above 200 nM.
On the same count and under the same terms, under `COc1nccc(C#N)c1-c1ncc2cnn(Cc3ccc(-c4nc(C(F)(F)F)cn4C)cc3)c2n1` stands 10 to 100 nM.
The same measure, in the same setting: to `Cc1nc(-c2ccccc2C(C)C)nc2c1cnn2Cc1ccc(-c2nc(C(F)(F)F)cn2C)cc1` belongs below 10 nM.
On to `COc1ncnc(C2CC2)c1-c1ncc2c(OC)nn([C@@H](C)c3ccc(-c4nc(C(F)(F)F)c(Br)n4C)cc3)c2n1` [Example 188, (S)-1-(1-(4-(5-bromo-1-methyl-4-(trifluoromethyl)-1H-imidazol-2-yl)phenyl)ethyl)-6-(4-cyclopropyl-6-methoxypyrimidin-5-yl)-3-methoxy-1H-pyrazolo[3,4-d]pyrimidine], for which the half-life at 1 μM in data set [1] and in data set [2] was above 25 min throughout. Also, the solubility at 24 h in data set [3] (setting [4]) and in data set [3] (setting [5]) was below 10 µM throughout.
Regarding `CCn1c(-c2ccc(Cn3nc(OC)c4cnc(-c5c(OC)ncnc5C5CC5)nc43)cc2)nc(C(F)(F)F)c1Br` [Example 189], the half-life at 1 μM in data set [1] and in data set [2] was above 25 min each time. The solubility at 24 h in data set [3] (setting [4]) and in data set [3] (setting [5]) was below 10 µM throughout.
As to `CCn1cc(C(F)(F)F)nc1-c1ccc(Cn2nc(SC)c3cnc(-c4c(OC)ncnc4C4CC4)nc32)cc1` [Example 190, 6-(4-cyclopropyl-6-methoxypyrimidin-5-yl)-1-(4-(1-ethyl-4-(trifluoromethyl)-1H-imidazol-2-yl)benzyl)-3-(methylthio)-1H-pyrazolo[3,4-d]pyrimidine], the half-life at 1 μM in data set [1] and in data set [2] was below 25 min each time. Moreover, the solubility at 24 h in data set [3] (setting [4]) and in data set [3] (setting [5]) was below 10 µM throughout.
Turning to `CCn1cc(C(F)(F)F)nc1-c1ccc(Cn2nc(SCc3ccc(OC)cc3)c3cnc(-c4c(OC)ncnc4C4CC4)nc32)cc1` [Example 192, 6-(4-cyclopropyl-6-methoxypyrimidin-5-yl)-1-(4-(1-ethyl-4-(trifluoromethyl)-1H-imidazol-2-yl)benzyl)-3-((4-methoxybenzyl)thio)-1H-pyrazolo[3,4-d]pyrimidine], the half-life at 1 μM in data set [1] and in data set [2] was below 25 min in each case. Besides, the solubility at 24 h in data set [3] (setting [4]) and in data set [3] (setting [5]) was below 10 µM throughout.
Take `COc1ncnc(C2CC2)c1-c1ncc2cnn(Cc3ccc(-n4nc(C(F)(F)F)cc4CO)cc3)c2n1` [Example 198, (1-(4-((6-(4-cyclopropyl-6-methoxypyrimidin-5-yl)-1H-pyrazolo[3,4-d]pyrimidin-1-yl)methyl)phenyl)-3-(trifluoromethyl)-1H-pyrazol-5-yl)methanol]: the half-life at 1 μM in data set [1] and in data set [2] was above 25 min each time. The solubility at 24 h in data set [3] (setting [4]) and in data set [3] (setting [5]) was below 10 µM throughout.
Turning to `COc1ncnc(C2CC2)c1-c1ncc2cnn(Cc3ccc(-n4nc(C(F)(F)F)cc4OC4CNC4)cc3)c2n1` [Example 200, 1-(4-(5-(azetidin-3-yloxy)-3-(trifluoromethyl)-1H-pyrazol-1-yl)benzyl)-6-(4-cyclopropyl-6-methoxypyrimidin-5-yl)-1H-pyrazolo[3,4-d]pyrimidine], the half-life at 1 μM in data set [1] and in data set [2] was above 25 min each time. The solubility at 24 h in data set [3] (setting [4]) and in data set [3] (setting [5]) was above 10 µM in each case.
For the molecule `COc1ncnc(C2CC2)c1-c1ncc2ccn(Cc3ccc(-c4nc(C(F)(F)F)cn4C)cc3)c2n1` [Example 201, 2-(4-cyclopropyl-6-methoxypyrimidin-5-yl)-7-(4-(1-methyl-4-(trifluoromethyl)-1H-imidazol-2-yl)benzyl)-7H-pyrrolo[2,3-d]pyrimidine], the half-life at 1 μM in data set [1] and in data set [2] was below 25 min throughout. Besides, the solubility at 24 h in data set [3] (setting [4]) was above 10 µM; in data set [3] (setting [5]) it was below 10 µM.
For the molecule `CC(C)c1ccccc1-c1ncc2ncn(Cc3ccc(-c4nc(C(F)(F)F)cn4C)cc3)c2n1` [Example 202, 2-(2-Isopropylphenyl)-9-(4-(1-methyl-4-(trifluoromethyl)-1H-imidazol-2-yl)benzyl)-9H-purine], the half-life at 1 μM in data set [1] and in data set [2] was below 25 min in each case. In addition, the solubility at 24 h in data set [3] (setting [4]) is above 10 µM; in data set [3] (setting [5]), below 10 µM.
Turning to `COc1ncnc(C2CC2)c1-c1ncc2ncn(Cc3ccc(-c4nc(C(F)(F)F)cn4C)cc3)c2n1` [Example 203], the half-life at 1 μM in data set [1] and in data set [2] was below 25 min throughout. Besides, the solubility at 24 h in data set [3] (setting [4]) and in data set [3] (setting [5]) was above 10 µM in each case.
With `COc1ncnc(C2CC2)c1-c1ncc2ncn(Cc3ccc(-c4nc(C(F)(F)F)cn4C(C)C)cc3)c2n1` [Example 204], the half-life at 1 μM in data set [1] is below 25 min; in data set [2] it was above 25 min. The solubility at 24 h in data set [3] (setting [4]) and in data set [3] (setting [5]) was above 10 µM throughout.
Take `CCc1nc2cnc(-c3c(OC)ncnc3C3CC3)nc2n1Cc1ccc(-c2nc(C(F)(F)F)cn2C(C)C)cc1` [Example 205, 2-(4-cyclopropyl-6-methoxypyrimidin-5-yl)-8-ethyl-9-(4-(1-isopropyl-4-(trifluoromethyl)-1H-imidazol-2-yl)benzyl)-9H-purine]: the half-life at 1 μM in data set [1] and in data set [2] was above 25 min in each case. The solubility at 24 h in data set [3] (setting [4]) and in data set [3] (setting [5]) was above 10 µM throughout.
Turning to `COc1ncnc(C2CC2)c1-c1ncc2nc(C)n(Cc3ccc(-c4nc(C(F)(F)F)cn4C)cc3)c2n1` [Example 206], the figures for the half-life at 1 μM in data set [1] and in data set [2] were above 25 min and below 25 min, respectively. The solubility at 24 h in data set [3] (setting [4]) is above 10 µM; in data set [3] (setting [5]) it was below 10 µM.
For `COCc1nc2cnc(-c3c(OC)ncnc3C3CC3)nc2n1Cc1ccc(-c2nc(C(F)(F)F)cn2C(C)C)cc1` [Example 207] the same measures were above 25 min, below 25 min, above 10 µM and above 10 µM.
For `COc1ncnc(C2CC2)c1-c1ncc2nc(C(C)C)n(Cc3ccc(-c4nc(C(F)(F)F)cn4C(C)C)cc3)c2n1` [Example 208] the same measures were above 25 min, above 25 min, below 10 µM and below 10 µM.
For the molecule `CCc1nc2cnc(-c3c(OC)ncnc3C3CC3)nc2n1Cc1ccc(-n2nc(C(F)(F)F)cc2C)cc1` [Example 209, 2-(4-cyclopropyl-6-methoxypyrimidin-5-yl)-8-ethyl-9-(4-(5-methyl-3-(trifluoromethyl)-1H-pyrazol-1-yl)benzyl)-9H-purine], the half-life at 1 μM in data set [1] is above 25 min; in data set [2], below 25 min. In addition, the solubility at 24 h in data set [3] (setting [4]) and in data set [3] (setting [5]) was above 10 µM throughout.
For `COc1ncnc(C2CC2)c1-c1ncc2ncn(Cc3ccc(-n4nc(C(F)(F)F)cc4C)cc3)c2n1` [Example 210], the half-life at 1 μM in data set [1] and in data set [2] was above 25 min throughout. In addition, the solubility at 24 h in data set [3] (setting [4]) and in data set [3] (setting [5]) was above 10 µM each time.
For `COc1ncnc(C2CC2)c1-c1ncc2nc(C)n(Cc3ccc(-n4nc(C(F)(F)F)cc4C)cc3)c2n1` [Example 211], the half-life at 1 μM in data set [1] is above 25 min; in data set [2], below 25 min. The solubility at 24 h in data set [3] (setting [4]) and in data set [3] (setting [5]) was above 10 µM throughout.
In the case of `COc1ncnc(C2CC2)c1-c1ncc2nc(C(C)C)n(Cc3ccc(-n4nc(C(F)(F)F)cc4C)cc3)c2n1` [Example 212], the half-life at 1 μM in data set [1] and in data set [2] was above 25 min throughout. Also, the solubility at 24 h in data set [3] (setting [4]) and in data set [3] (setting [5]) was below 10 µM throughout.
`COc1ncnc(C2CC2)c1-c1ncc2nc(C3CC3)n(Cc3ccc(-n4nc(C(F)(F)F)cc4C)cc3)c2n1` [Example 213]: the half-life at 1 μM in data set [1] and in data set [2] was above 25 min throughout. For the same molecule, the solubility at 24 h in data set [3] (setting [4]) and in data set [3] (setting [5]) was below 10 µM in each case.
For `COc1ncnc(C2CC2)c1-c1ncc2nc(C3CCC3)n(Cc3ccc(-n4nc(C(F)(F)F)cc4C)cc3)c2n1` [Example 214], the half-life at 1 μM in data set [1] and in data set [2] was above 25 min in each case. Moreover, the solubility at 24 h in data set [3] (setting [4]) and in data set [3] (setting [5]) was below 10 µM throughout.
In the case of `COc1ncnc(C2CC2)c1-c1ncc2nnn(Cc3ccc(-c4nc(C(F)(F)F)cn4C)cc3)c2n1` [Example 215, 5-(4-cyclopropyl-6-methoxypyrimidin-5-yl)-3-(4-(1-methyl-4-(trifluoromethyl)-1H-imidazol-2-yl)benzyl)-3H-[1,2,3]triazolo[4,5-d]pyrimidine], the half-life at 1 μM in data set [1] was below 25 min; in data set [2], above 25 min. In addition, the solubility at 24 h in data set [3] (setting [4]) and in data set [3] (setting [5]) was above 10 µM each time.
